Common to all, as to format: cell-based
One series relates to HCV replicon. The series can be described thus: Anti-HCV assay/Replicon assay 2 (luciferase). The following applies: Hepatitis C virus, 72 h, 3 days. How it is done: • HCV Replicon Media • DMEM w/High Glucose (or MEM) • 1× Glutamine • 1× Sodium Pyruvate • 10% Heat Inactivated FBS • 1× Antibiotics Cell Culture Preparation • 1. Unthaw frozen stock in 10-12 mls of Media • 2. Allow cells to attach before adding G418 (4-6 hrs) • 3. Add G418 for a final concentration of 200 ug/mL (higher amounts are possible but cells grow slowly) • 4. Split cells 1:4 to 1:6 for optimal growth • 5. In-house replicon seems to maintain Luciferase signal for ˜20 passages HCV Replicon Assay • 1. Dilute compounds in 100 uL of HCV Replicon Media (without G418). If compounds are diluted in DMSO add DMSO to media (Final DMSO concentration should be <1%) • 2. Once cells have reached 80-90% confluency, trypsinize with 1× Trypsin • 3. […] These cells tend to clump if over trypsinized • 4. For 96 well format add 6,000-8,000 cells per well (G418 is withheld during compound testing) • 5. Incubate for 3 days at 37° C. Cells should be very close to confluent. • 6. Remove media and wash cells with 1×PBS • 7. Remove PBS and add 100 μL of 1×Promega Lysis Buffer • 8. Incubate cells at Room Temperature for 5-20 minutes • 9. Add 100 μL of room temperature Luciferase Substrate Solution (Promega) to Microfluor Black Plate (VWR) • 10. Thoroughly Mix Cell lysate (pipet up and down) before adding to Luciferase substrate • 11. Add 75 μL of lysate to the Luciferase substrate solution • 12. Read Plate On Top Count (FusionLucB program˜5 second read) • 13. Left over lysate can be frozen and used for later analysis Determination of Cytostatic Effect on MDBK Cells
In general terms: Replicon systems follow genome replication, usually without infectious particles.

Series [1] in a line: HCV CC50 assay protocol (MTT). The following applies: HCV replicon cells. On the procedure:
(§1) • HCV Replicon Media • DMEM w/High Glucose (or MEM) • 1×Glutamine • 1× Sodium Pyruvate • 10% Heat Inactivated FBS • 1× Antibiotics Cell Culture Preparation • 1. Unthaw frozen stock in 10-12 mls of Media • 2. Allow cells to attach before adding G418 (4-6 hrs) • 3. Add G418 for a final concentration of 200 ug/ml (higher amounts are possible but cells grow slowly) • 4. Split cells 1:4 to 1:6 for optimal growth • 5. In-house replicon seems to maintain Luciferase signal for ˜20 passages HCV Replicon Assay • 1 Dilute compounds in 100 uL of HCV Replicon Media (without G418). If compounds are diluted in DMSO add DMSO to media (Final DMSO concentration should be <1%) • 2. Once cells have reached 80-90% confluency, trypsinize with 1×Trypsin • 3. […] These cells tend to clump if over trypsinized • 4. For 96 well format add 6,000-8,000 cells per well (G418 is withheld during compound testing) • 5. Incubate for 3 days at 37° C. Cells should be very close to confluent. • 6. Remove media and add 200 μL of a 0.2 mg/mL MTT solution prepared in media. • 7. Incubate for 1.5 hours to 2 hours. • 8. Remove media and add 150 μL of DMSO • 9. Mix and incubate for 5 mins at room temperature • 10. Read plate at 530 nm in the plate reader. Results

A further series concerns HCV replicon cells. Description: HCV CC50 assay protocol (MTT). The following applies: 3 days. How it is done:
as §1

Broadly, the EC50 is the concentration at which the effect is half-maximal. The low end stands for an effect from little substance, the high end for a need for much substance. What is called CC50 is the concentration at which the toxic effect on the cells reaches its halfway point. A low value points to greater toxicity to the cells. `Fc1ccccc1-c1nc2ccn(Cc3cc(-c4ccc(Cl)cc4)no3)cc-2n1` [Example 2, 5((3-(4-chlorophenyl)isoxazol-5-yl)methyl)-2-(2-fluorophenyl)-5H-imidazo[4,5-c]pyridine] showed an EC50 in the series on HCV replicon of 10 nM. Also, half-maximal cytotoxicity in series [1] (CC50 at 3 days) was put at 26 µM.
For the molecule `Fc1cccc(-c2nc3ccn(Cc4ccc(OC(F)(F)F)cc4)cc-3n2)c1F` [Example 3A, 5-(4-(trifluoromethoxy)benzyl)-2-(2,3-difluorophenyl)-5H-imidazo[4,5-c]pyridine], in the series with HCV replicon, a half-maximal response (EC50) required 20 nM. Further, in series [1], the CC50 at 3 days amounted to 34 µM.
Taken in the same sequence, the figures for `Fc1ccc(-c2ccc(Cn3ccc4nc(-c5cccc(F)c5F)nc-4c3)cc2)c(F)c1` [Example 4, 5-(2,4-difluoro-biphenyl)methyl-2-(2,3-difluorophenyl)-5H-imidazo[4,5-c]pyridine] were 10 nM and 19 µM.
In turn, `Fc1cccc(-c2nc3ccn(Cc4cc(-c5ccc(Cl)cc5)no4)cc-3n2)c1F` [Example 5, 5-((3-(4-chlorophenyl)isoxazol-5-yl)methyl)-2-(2,3-difluorophenyl)-5H-imidazo[4,5-c]pyridine] came in with an EC50 with HCV replicon of 3.9 nM. In the series with HCV replicon cells, this molecule yielded a cytotoxic concentration (CC50) of 13.4 µM. For the same molecule, the midpoint of cytotoxicity in series [1], the CC50 at 3 days, lay at 10.8 µM.

The record behind these values is patent US20050222198A1, “Imidazo[4,5-c]pyridine compounds and methods of antiviral treatment” (priority 2003, published 2005).
